Like-named read-outs stand apart in the source and are kept apart here.
Settings: for Avg. CFBL 24HC / Max. CFBL 24HC: Table 34, ELEKTRA patients, steady-state; for Avg. Ch. f. BL. 24HC / Max. Red. f. BL. 24HC: Table 34A, ELEKTRA (TAK-935-2002)
From the text: Other inclusion criteria were body weight ≥10 kg, currently taking a fixed dosage of 1 to 4 antiseizure medications, and failure to remain seizure free after trying at least two antiseizure medications. Convulsive seizures include focal to bilateral tonic-clonic with impaired awareness, hemi-clonic, simultaneous bilateral clonic, and generalized tonic-clonic seizures. Drop seizures can involve the entire body, trunk, or head which leads to falling. […] Approximately 126 patients ages ≥2 and ≤17 years were enrolled in the study. The study included two main phases, a 4-6 week screening and baseline period, and a 20-week treatment period. Patients received doses twice a day in a tablet formulation. The starting dose was adjusted according to the patient's body weight (Table 17).
During the first 8 weeks of treatment patient dosing was a titrated for individual optimization. The remaining 12-weeks of treatment consisted of a maintenance phase. The study began with treating patients ≥9 years of age for one month before treating younger patients. Blood was collected for PK analysis on the first dosage day within one hour of the morning dose, and 30 minutes, and 1, 2, 3, and 4 hours post-dose. Subsequent blood sampling took place before the morning dose and 30 minutes post-dose. Blood samples were obtained at scheduled times for determining PK profile and Tmax, which is the time Cmax was reached. A patient's seizure frequency was recorded before and during the trial to calculate percent change from baseline.
The PK model parameters can be used as a tool to estimate PK and drug exposure in an individual or a population (such as with ELEKTRA), as well as to calculate individualized dosing based on covariates. For example, optimal daily dosing can be calculated using the area under the concentration time curve and clearance values (dose=targetAUC24×CL). Blood sampling at steady-state was limited in the ELEKTRA study, thus some of the PK parameters shown in Table 32 for the ELEKTRA population were simulated by interpolation.
The dots represent the simulation and the numbers below the dot represent the simulated covariate value, while the values above the dots show the percent change from the reference level. The vertical line labeled “ref” depicts the reference level. […] The CV % refers to the coefficient of variation assuming a log-normal distribution, derived as […], where σ denotes the standard deviation of the log-transformed values.
The term AUC(0-tau) stands for AUC to the end of the dosing period. The covariate effects were analyzed using exposure parameters AUC, Cmax, and Ctrough.

[1] = Eq. Dose 100 mg (N = 70), Median
[2] = Eq. Dose 100 mg (N = 70), Range
[3] = Eq. Dose 200 mg (N = 68), Median
[4] = Eq. Dose 200 mg (N = 68), Range
[5] = Eq. Dose 300 mg (N = 56), Median
[6] = Eq. Dose 300 mg (N = 56), Range
[7] = Equiv. Dose 100 mg BID, N = 70, Mean
[8] = Equiv. Dose 100 mg BID, N = 70, Median
[9] = Equiv. Dose 100 mg BID, N = 70, Range
[10] = Equiv. Dose 200 mg BID, N = 68, Mean
[11] = Equiv. Dose 200 mg BID, N = 68, Median
[12] = Equiv. Dose 200 mg BID, N = 68, Range
[13] = Equiv. Dose 300 mg BID, N = 56, Mean
[14] = Equiv. Dose 300 mg BID, N = 56, Median
[15] = Equiv. Dose 300 mg BID, N = 56, Range

## O=C(c1cccnc1-c1ccncc1)N1CCC(O)(Cc2ccccc2)CC1 [soticlestat]
Eq. Dose 100 mg (N = 70), Mean
  Avg. CFBL 24HC: −69.4%
  Max. CFBL 24HC: −69.6%
[1]
  Avg. CFBL 24HC: −70.8%
  Max. CFBL 24HC: −71%
[2]
  Avg. CFBL 24HC: −86.9-−42.2%
  Max. CFBL 24HC: −87-−42.6%
Eq. Dose 200 mg (N = 68), Mean
  Avg. CFBL 24HC: −78.6%
  Max. CFBL 24HC: −78.7%
[3]
  Avg. CFBL 24HC: −80.7%
  Max. CFBL 24HC: −80.8%
[4]
  Avg. CFBL 24HC: −89.7-−54.7%
  Max. CFBL 24HC: −89.8-−55%
Eq. Dose 300 mg (N = 56), Mean
  Avg. CFBL 24HC: −82%
  Max. CFBL 24HC: −82.1%
[5]
  Avg. CFBL 24HC: −84%
  Max. CFBL 24HC: −84.1%
[6]
  Avg. CFBL 24HC: −90.9-−64.1%
  Max. CFBL 24HC: −90.9-−64.4%
[7]
  Avg. Ch. f. BL. 24HC: −67.38%
  Max. Red. f. BL. 24HC: −67.65%
[8]
  Avg. Ch. f. BL. 24HC: −70.08%
  Max. Red. f. BL. 24HC: −70.39%
[9]
  Avg. Ch. f. BL. 24HC: −86.70-−10.05%
  Max. Red. f. BL. 24HC: −86.77-−10.19%
[10]
  Avg. Ch. f. BL. 24HC: −76.77%
  Max. Red. f. BL. 24HC: −76.97%
[11]
  Avg. Ch. f. BL. 24HC: −80.21%
  Max. Red. f. BL. 24HC: −80.37%
[12]
  Avg. Ch. f. BL. 24HC: −89.03-−18.58%
  Max. Red. f. BL. 24HC: −89.07-−18.80%
[13]
  Avg. Ch. f. BL. 24HC: −79.95%
  Max. Red. f. BL. 24HC: −80.11%
[14]
  Avg. Ch. f. BL. 24HC: −82.50%
  Max. Red. f. BL. 24HC: −82.65%
[15]
  Avg. Ch. f. BL. 24HC: −89.98-−23.43%
  Max. Red. f. BL. 24HC: −90.00-−23.69%
